# According to PubChem BioAssay (NCI):
#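 48-hour exposure; five concentrations; linearly interpolated endpoints. GI50 = concentration required for 50% inhibition of growth. TGI marks complete inhibition of growth.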
# Columns and labels:
# Test in all cases: NCI anticancer screen, dose series, 48 h
# UACC-257 melanoma = test system: UACC-257 melanoma
# MALME-3M melanoma = test system: MALME-3M melanoma
# MDA-MB-435 = test system: MDA-MB-435
# A498 renal = test system: A498 renal
# SR leukemia = test system: SR leukemia
# SNB-75 CNS = test system: SNB-75 CNS
# HOP-92 NSCLC = test system: HOP-92 NSCLC
# COLO 205 colon = test system: COLO 205 colon
# TK-10 renal = test system: TK-10 renal
# HCT-116 colon = test system: HCT-116 colon
# UACC-62 melanoma = test system: UACC-62 melanoma
# M14 melanoma = test system: M14 melanoma
# NCI-H460 lung = test system: NCI-H460 lung
# UO-31 renal = test system: UO-31 renal
# U251 CNS = test system: U251 CNS
# T-47D breast = test system: T-47D breast
# SK-MEL-5 melanoma = test system: SK-MEL-5 melanoma
# CAKI-1 renal = test system: CAKI-1 renal
SMILES,TGI (UACC-257 melanoma) [µM],TGI (MALME-3M melanoma) [µM],TGI (MDA-MB-435) [µM],TGI (A498 renal) [µM],TGI (SR leukemia) [µM],TGI (SNB-75 CNS) [µM],TGI (HOP-92 NSCLC) [µM],TGI (COLO 205 colon) [µM],TGI (TK-10 renal) [µM],TGI (HCT-116 colon) [µM],TGI (UACC-62 melanoma) [µM],TGI (M14 melanoma) [µM],TGI (NCI-H460 lung) [µM],TGI (UO-31 renal) [µM],TGI (U251 CNS) [µM],TGI (T-47D breast) [µM],TGI (SK-MEL-5 melanoma) [µM],TGI (CAKI-1 renal) [µM],GI50 (MDA-MB-435) [µM],GI50 (HCT-116 colon) [µM]
COc1ccc(N2C(=O)C3ON(C(C(N)=O)c4ccccc4)C(c4cc5ccccc5c5ccccc45)C3C2=O)cc1 (stereo not drawn),> 50,> 50,> 50,> 50,> 50,> 50,> 50,> 50,> 50,> 50,> 50,> 50,> 50,34.5,> 50,> 50,> 50,18.5,–,–
COc1cc2c(cc1OC)CCc1cc(OC)c(OC)cc1CC2,> 100,> 100,> 100,> 100,> 100,> 100,> 100,> 100,> 100,> 100,> 100,> 100,> 100,> 100,> 100,> 100,> 100,> 100,–,–
Cc1ccc(NC(=S)N/N=C(/c2ccccc2)c2ccccn2)cc1,1.9,9.23,14.7,11.2,> 20.5,5.16,8.82,2.89,2.44,14,10.1,2.21,7.05,7.68,12.9,12.6,5.08,9.48,–,–
CN(C)/C=N/S(=O)(=O)c1nn2c(C=O)c(-c3ccc(Cl)cc3)nc2s1,9.83,3.2,7.92,30.3,3.4,24.3,7.17,2.81,2.88,2.18,14.3,2.17,22.4,2.18,11.7,3.36,2.98,2.58,–,–
C=C1CC[C@H](O)C(C)(C)[C@@H]1CC/C(C)=C/CC/C=C(\C)CC/C=C(\C)CCC=C(C)C,> 100,> 100,> 100,> 100,> 100,> 100,> 100,> 100,> 100,> 100,> 100,> 100,> 100,> 100,> 100,59.3,> 100,> 100,–,–
CNc1nc2n(CCO)c(-c3ccccc3)c(-c3ccccc3)nc-2c(=O)n1,> 50,> 50,> 50,> 50,> 50,> 50,> 50,> 50,> 50,> 50,> 50,> 50,> 50,> 50,> 50,> 50,> 50,> 50,–,–
COC(=O)CCc1cc(O)c2c(c1)C(C(=O)OC)C(c1ccc(O)c(O)c1)O2 (stereo not drawn),> 100,> 100,4.67,> 84.5,> 25.5,8.41,> 100,> 100,> 100,> 100,> 100,> 100,> 62.8,> 100,> 95,> 72.3,20.4,> 100,–,–
CCNc1cc2c(cc1O)CC[C@@H]1[C@@H]2CC[C@]2(C)[C@@H](O)CC[C@@H]12,25,17.5,0.712,6.16,41.2,11.4,22.4,27.8,34,18.7,> 35,18.9,13.7,24.3,18.5,> 55.3,11.8,27.2,0.0515,3.1
COC(=O)C(COC(C)=O)NC(=O)/C=C/c1ccc(O)c(OC(C)=O)c1 (stereo not drawn),> 100,> 100,> 100,> 100,> 100,> 100,> 100,> 100,> 100,> 100,> 100,> 100,> 100,> 100,> 100,> 100,> 100,> 100,–,–
COc1cc(/C=C2\N=C(c3ccccc3)N(c3nc4c(OC)ccc(OC)c4s3)C2=O)ccc1O,> 100,> 100,50.7,> 100,> 100,93.2,> 100,> 100,> 100,> 100,> 100,> 100,> 100,> 100,> 100,26.4,> 100,> 100,–,–
O=[N+]([O-])c1cccc2nc3ccccc3c(NCCC[N+]3([O-])CCOCC3)c12,1.29,0.347,0.331,0.422,> 40.8,0.683,0.29,0.24,3.33,0.533,0.319,0.921,0.462,4.59,0.964,0.919,0.241,12.1,–,–
CC(C)(C)C1=CC(=C(c2ccc(-c3c4nc(c(-c5ccc(C(=C6C=C(C(C)(C)C)C(=O)C(C(C)(C)C)=C6)c6cc(C(C)(C)C)c(O)c(C(C)(C)C)c6)cc5)c5ccc([nH]5)c(-c5ccc(C(=C6C=C(C(C)(C)C)C(=O)C(C(C)(C)C)=C6)c6cc(C(C)(C)C)c(O)c(C(C)(C)C)c6)cc5)c5nc(c(-c6ccc(C(=C7C=C(C(C)(C)C)C(=O)C(C(C)(C)C)=C7)c7cc(C(C)(C)C)c(O)c(C(C)(C)C)c7)cc6)c6ccc3[nH]6)C=C5)C=C4)cc2)c2cc(C(C)(C)C)c(O)c(C(C)(C)C)c2)C=C(C(C)(C)C)C1=O,> 100,> 100,> 100,> 100,> 100,> 100,> 100,> 100,> 100,> 100,> 100,> 100,> 100,> 100,> 100,> 100,> 100,> 100,–,–
